Data: patent US5374764A, “5-aminosulfonanilide compounds” (Taisho Pharmaceutical Co., Ltd., priority 1991, dated 1994)

System: adjuvant arthritis
Experiment: Test of action on adjuvant arthritis (therapy)
Type: in vivo, Lewis strain rats
Details: Rattus norvegicus, 96 h; oral, 1 mg/kg once a day for 4 days, in 5% gum arabic; Lewis rats with fully developed adjuvant arthritis; foot volume on day after final administration; read-out: Edema inhibition ratio (%)

Compound | inhibition in vivo at 1 mg/kg
CCCCC(=O)Nc1cc(NS(C)(=O)=O)c(OC2CCCCC2)cc1[N+](=O)[O-] [Test drug 1, N-[2-cyclohexyloxy-4-nitro-5-(n-valerylamino)phenyl]methanesulfonamide] | 46.5%
CS(=O)(=O)Nc1cc(NC=O)c([N+](=O)[O-])cc1OC1CCCCC1 [Test drug 2] | 43.1%
CC(=O)Nc1cc(NS(C)(=O)=O)c(OC2CCCCC2)cc1[N+](=O)[O-] [Test drug 3] | 45.7%
CCC(=O)Nc1cc(NS(C)(=O)=O)c(OC2CCCCC2)cc1[N+](=O)[O-] [Test drug 4] | 48.5%
CCCC(=O)Nc1cc(NS(C)(=O)=O)c(OC2CCCCC2)cc1[N+](=O)[O-] [Test drug 5, N-[5-(n-butyrylamino)-2-cyclohexyloxy-4-nitrophenyl)methanesulfonamide] | 44.2%
CCOC(=O)C(=O)Nc1cc(NS(C)(=O)=O)c(OC2CCCCC2)cc1[N+](=O)[O-] [Test drug 6] | 50.9%
CCCOC(=O)C(=O)Nc1cc(NS(C)(=O)=O)c(OC2CCCCC2)cc1[N+](=O)[O-] [Test drug 7] | 37.2%
COC(=O)CC(=O)Nc1cc(NS(C)(=O)=O)c(OC2CCCCC2)cc1[N+](=O)[O-] [Test drug 8] | 38%
CCOC(=O)CCC(=O)Nc1cc(NS(C)(=O)=O)c(OC2CCCCC2)cc1[N+](=O)[O-] [Test drug 9] | 52.8%
CS(=O)(=O)Nc1cc(N)c([N+](=O)[O-])cc1OC1CCCCC1 [Test drug 10, N-(5-amino-2-cyclohexyloxy-4-nitrophenyl)methanesulfonamide] | 46.7%
CS(=O)(=O)Nc1ccc([N+](=O)[O-])cc1OC1CCCCC1 [compound 11] | 19.7%
